Values after ≈ are worked out from the molar mass of the structure shown. One block for each molecule: values may come before it. Active and inactive are the calls of the source. The calls are words filed in the database; no cut-off is given here.
What was measured:
cells = conditions: Homo sapiens, A875, 72 h
in vivo [1] = conditions: Balb/C, mouse, iv, 1 mg/kg
in vivo [2] = conditions: Balb/C, mouse, iv, 1 mg/kg; remark: listed apart in the source
in vivo [3] = conditions: Balb/C, mouse, iv, 1 mg/kg; remark: listed apart in the source
in vivo [4] = conditions: Balb/C, mouse, iv, 1 mg/kg; remark: listed apart in the source
in vitro [5] = conditions: human, plasma
in vitro [6] = conditions: mouse, plasma
in vitro [7] = conditions: mouse, liver microsomes
in vitro [8] = conditions: human, liver microsomes
in vivo [9] = conditions: dog, iv, 0.3 mg/kg
in vivo [10] = conditions: dog, iv, 0.3 mg/kg; remark: listed apart in the source
in vivo [11] = conditions: rat, iv, 1 mg/kg
animal or person [12] = conditions: Homo sapiens, A875, ip, 72 h, read-out: TGI
in vitro [13] = conditions: rat, liver microsomes
A875 = conditions: Homo sapiens, 50 mg/kg
in vitro [14] = conditions: dog, plasma
HCT-116/VM46 = assay: cells; conditions: Homo sapiens
animal or person [15] = conditions: Homo sapiens, A875, ip, read-out: TGI
in vivo [16] = conditions: dog, iv, 0.3 mg/kg; remark: listed apart in the source
in vitro [17] = conditions: rat, plasma
in vitro [18] = conditions: dog, liver microsomes
physchem = conditions: buffer, pH 7.4
HCT-116 = assay: cells; conditions: Homo sapiens
in vivo [19] = conditions: rat, iv, 1 mg/kg; remark: listed apart in the source
animal or person [20] = conditions: Homo sapiens, A875, ip, 72 h, read-out: TGI; remark: listed apart in the source
in vivo [21] = conditions: rat, iv, 1 mg/kg; remark: listed apart in the source
hERG = hERG (Homo sapiens, UniProt Q12809); assay: in vitro
hERG, sequence (Q12809 whole entry): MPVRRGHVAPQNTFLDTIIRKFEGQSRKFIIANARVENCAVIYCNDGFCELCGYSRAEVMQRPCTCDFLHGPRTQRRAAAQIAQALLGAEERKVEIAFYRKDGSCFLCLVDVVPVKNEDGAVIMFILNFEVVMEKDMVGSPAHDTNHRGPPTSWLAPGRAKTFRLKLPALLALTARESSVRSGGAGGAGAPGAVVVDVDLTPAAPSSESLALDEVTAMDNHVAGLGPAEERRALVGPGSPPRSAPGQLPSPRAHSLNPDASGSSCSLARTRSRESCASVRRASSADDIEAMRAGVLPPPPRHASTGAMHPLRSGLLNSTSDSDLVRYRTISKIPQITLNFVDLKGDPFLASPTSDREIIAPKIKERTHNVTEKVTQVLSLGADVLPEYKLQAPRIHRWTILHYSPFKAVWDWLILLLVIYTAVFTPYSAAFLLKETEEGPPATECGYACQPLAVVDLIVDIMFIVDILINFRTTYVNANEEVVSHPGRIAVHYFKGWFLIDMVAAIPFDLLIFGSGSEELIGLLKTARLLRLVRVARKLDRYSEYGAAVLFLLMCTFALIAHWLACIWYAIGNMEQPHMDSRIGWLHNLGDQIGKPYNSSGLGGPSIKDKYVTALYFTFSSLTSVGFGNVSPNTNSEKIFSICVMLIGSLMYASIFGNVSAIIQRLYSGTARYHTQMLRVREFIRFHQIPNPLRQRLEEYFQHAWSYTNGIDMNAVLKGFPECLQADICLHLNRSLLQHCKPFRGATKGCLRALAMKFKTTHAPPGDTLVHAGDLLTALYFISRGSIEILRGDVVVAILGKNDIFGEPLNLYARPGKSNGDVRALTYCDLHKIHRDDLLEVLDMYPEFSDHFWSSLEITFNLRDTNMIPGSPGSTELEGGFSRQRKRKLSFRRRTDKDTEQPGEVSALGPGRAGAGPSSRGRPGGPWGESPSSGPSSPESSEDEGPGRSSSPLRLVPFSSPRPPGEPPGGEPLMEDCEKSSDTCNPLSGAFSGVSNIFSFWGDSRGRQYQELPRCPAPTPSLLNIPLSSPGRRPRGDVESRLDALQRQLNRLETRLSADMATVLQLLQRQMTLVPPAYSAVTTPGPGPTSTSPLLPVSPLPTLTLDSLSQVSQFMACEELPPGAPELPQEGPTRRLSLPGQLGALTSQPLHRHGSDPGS

Mus musculus = species: Mus musculus; conditions: in vivo, iv, 1 mg/kg, 7 h

SMILES: CN[C@@H](C)C(=O)N[C@H](C(=O)N1C[C@@H]2C[C@H]1C(=O)N[C@@H](Cc1ccc3ccccc3c1)C(=O)N[C@H](C(=O)OC)Cc1ccc(cc1)OCc1cn(nn1)[C@H]1C[C@@H](C(=O)N[C@@H](Cc3ccc4ccccc4c3)C(=O)N[C@H](C(=O)OC)Cc3ccc(cc3)OCc3cn2nn3)N(C(=O)[C@@H](NC(=O)[C@H](C)NC)C(C)(C)C)C1)C(C)(C)C
IC50 (cells): 690 nM

SMILES: CN[C@@H](C)C(=O)N[C@H](C(=O)N1C[C@H]2C/C=C/COc3ccc(cc3)C[C@@H](C(=O)NS(=O)(=O)C3CC3)NC(=O)[C@H](Cc3ccc4ccccc4c3)NC(=O)[C@@H]3C[C@H](C/C=C/COc4ccc(cc4)C[C@@H](C(=O)O)NC(=O)[C@H](Cc4ccc5ccccc5c4)NC(=O)[C@@H]1C2)CN3C(=O)[C@@H](NC(=O)[C@H](C)NC)C(C)(C)C)C(C)(C)C
IC50 (cells): 23 nM

SMILES: CN[C@@H](C)C(=O)N[C@H](C(=O)N1C[C@H]2CCCCOc3ccc(cc3)C[C@@H](C(=O)O)NC(=O)[C@H](Cc3ccc4ccccc4c3)NC(=O)[C@@H]3C[C@@H](CN3C(=O)[C@@H](NC(=O)[C@H](C)NC)C(C)(C)C)n3cc(nn3)COc3ccc(cc3)C[C@@H](NS(=O)(=O)C3CC3)NC(=O)[C@H](Cc3ccc4ccccc4c3)NC(=O)[C@@H]1C2)C(C)(C)C
fraction unbound (in vitro [5]): 0.075
fraction unbound (in vitro [6]): 0.058
half-life (in vitro [7]): > 2 h
AUC(0-t) at 7 h (in vivo [1]): 4.49 µM·h
half-life (in vitro [8]): > 2 h
AUC(0-t) at 7 h (in vivo [9]): 8.43 µM·h
half-life (in vivo [10]): 4.7 h
clearance (in vivo [11]): 6.2 mL/min/kg
IC50 (cells): 19 nM
clearance (in vivo [2]): 2.1 mL/min/kg
inhibition in vivo at 2 mg/kg (animal or person [12]): 67%
half-life (in vivo [3]): 1.7 h
half-life (in vitro [13]): 1.4 h
TGI (A875): Active
fraction unbound (in vitro [14]): 0.024
IC50 (HCT-116/VM46): 11 nM
inhibition in vivo at 5 mg/kg (animal or person [15]): 80%
clearance (in vivo [16]): 0.4 mL/min/kg
fraction unbound (in vitro [17]): 0.019
half-life (in vitro [18]): > 2 h
solubility (physchem): 50 µg/mL (≈ 32.1 µM)
IC50 (HCT-116): 92 nM
half-life (in vivo [19]): 1 h
inhibition in vivo at 5 mg/kg (animal or person [20]): > 100%
AUC(0-t) at 7 h (in vivo [21]): 1.71 µM·h
inhibition at 30 um (hERG): 9%

SMILES: CN[C@@H](C)C(=O)N[C@H](C(=O)N1C[C@@H]2C[C@H]1C(=O)N[C@@H](Cc1ccc3ccccc3c1)C(=O)N[C@H](C(=O)O)Cc1ccc(cc1)OCc1cn(nn1)[C@H]1C[C@@H](C(=O)N[C@@H](Cc3ccc4ccccc4c3)C(=O)N[C@H](C(=O)OC)Cc3ccc(cc3)OCc3cn2nn3)N(C(=O)[C@@H](NC(=O)[C@H](C)NC)C(C)(C)C)C1)C(C)(C)C
IC50 (cells): 310 nM

SMILES: C=CCOc1ccc(C[C@H](NC(=O)[C@H](Cc2ccc3ccccc3c2)NC(=O)[C@@H]2C[C@H](n3cc(COc4ccc(C[C@H](NC(=O)[C@H](Cc5ccc6ccccc6c5)NC(=O)[C@@H]5C[C@H](CC=C)CN5C(=O)[C@@H](NC(=O)[C@H](C)NC)C(C)(C)C)NS(=O)(=O)C5CC5)cc4)nn3)CN2C(=O)[C@@H](NC(=O)[C@H](C)NC)C(C)(C)C)C(=O)O)cc1
IC50 (cells): > 1000 nM

SMILES: CN[C@@H](C)C(=O)N[C@H](C(=O)N1C[C@@H]2C[C@H]1C(=O)N[C@@H](Cc1ccc3ccccc3c1)C(=O)N[C@H](NS(=O)(=O)C1CC1)Cc1ccc(cc1)OCc1cn(nn1)[C@H]1C[C@@H](C(=O)N[C@@H](Cc3ccc4ccccc4c3)C(=O)N[C@H](C(=O)O)Cc3ccc(cc3)OCc3cn2nn3)N(C(=O)[C@@H](NC(=O)[C@H](C)NC)C(C)(C)C)C1)C(C)(C)C
AUC(0-t) at 7 h (in vivo [1]): 5.85 µM·h
IC50 (cells): 39 nM
clearance (in vivo [2]): 1.5 mL/min/kg
half-life (in vivo [3]): 1 h
Vd (in vivo [4]): 0.1 L/kg

Continued by falling IC50 (cells), values first:

IC50 (cells): 83 nM
SMILES: CN[C@@H](C)C(=O)N[C@H](C(=O)N1C[C@@H]2C[C@H]1C(=O)N[C@@H](Cc1ccc3ccccc3c1)C(=O)N[C@H](C(=O)O)Cc1ccc(cc1)OCc1cn(nn1)[C@H]1C[C@@H](C(=O)N[C@@H](Cc3ccc4ccccc4c3)C(=O)N[C@H](c3nnn[nH]3)Cc3ccc(cc3)OCc3cn2nn3)N(C(=O)[C@@H](NC(=O)[C@H](C)NC)C(C)(C)C)C1)C(C)(C)C

AUC(0-t) at 7 h (in vivo [1]): 2.35 µM·h
IC50 (cells): 79 nM
clearance (in vivo [2]): 3.6 mL/min/kg
half-life (in vivo [3]): 0.9 h
Vd (in vivo [4]): 0.3 L/kg
SMILES: CN[C@@H](C)C(=O)N[C@H](C(=O)N1C[C@@H]2C[C@H]1C(=O)N[C@@H](Cc1ccc3ccccc3c1)C(=O)N[C@H](NS(=O)(=O)C1CC1)Cc1ccc(cc1)OCc1cn(nn1)[C@H]1C[C@@H](C(=O)N[C@@H](Cc3ccc4ccccc4c3)C(=O)N[C@H](NS(=O)(=O)C3CC3)Cc3ccc(cc3)OCc3cn2nn3)N(C(=O)[C@@H](NC(=O)[C@H](C)NC)C(C)(C)C)C1)C(C)(C)C

AUC (Mus musculus): 1.55 µM·h
IC50 (cells): 73 nM
solubility (physchem): 130 µg/mL (≈ 86.3 µM)
Vd (in vivo [4]): 0.3 L/kg
SMILES: CN[C@@H](C)C(=O)N[C@H](C(=O)N1C[C@@H]2C[C@H]1C(=O)N[C@@H](Cc1ccc3ccccc3c1)C(=O)N[C@H](C(=O)O)Cc1ccc(cc1)OCc1cn(nn1)[C@H]1C[C@@H](C(=O)N[C@@H](Cc3ccc4ccccc4c3)C(=O)N[C@H](C(=O)O)Cc3ccc(cc3)OCc3cn2nn3)N(C(=O)[C@@H](NC(=O)[C@H](C)NC)C(C)(C)C)C1)C(C)(C)C

IC50 (cells): 51 nM
SMILES: CN[C@@H](C)C(=O)N[C@H](C(=O)N1C[C@H]2C/C=C/COc3ccc(cc3)C[C@@H](C(=O)O)NC(=O)[C@H](Cc3ccc4ccccc4c3)NC(=O)[C@@H]3C[C@@H](CN3C(=O)[C@@H](NC(=O)[C@H](C)NC)C(C)(C)C)n3cc(nn3)COc3ccc(cc3)C[C@@H](NS(=O)(=O)C3CC3)NC(=O)[C@H](Cc3ccc4ccccc4c3)NC(=O)[C@@H]1C2)C(C)(C)C

IC50 (cells): 15 nM
solubility (physchem): < 10 µg/mL
SMILES: CN[C@@H](C)C(=O)N[C@H](C(=O)N1C[C@H]2CCCCOc3ccc(cc3)C[C@@H](C(=O)NS(=O)(=O)C3CC3)NC(=O)[C@H](Cc3ccc4ccccc4c3)NC(=O)[C@@H]3C[C@H](CCCCOc4ccc(cc4)C[C@@H](C(=O)O)NC(=O)[C@H](Cc4ccc5ccccc5c4)NC(=O)[C@@H]1C2)CN3C(=O)[C@@H](NC(=O)[C@H](C)NC)C(C)(C)C)C(C)(C)C

From ChEMBL document CHEMBL3608248, “Dimeric Macrocyclic Antagonists of Inhibitor of Apoptosis Proteins for the Treatment of Cancer” (ACS Med Chem Lett, 2015)
